How the values were obtained:
[1] = tested on: Plasmodium falciparum; test: Antimalarial activity against chloroquine-sensitive Plasmodium falciparum 3D7 infected type A+ human erythrocytes after 24 hrs by [G-3H]hypoxanthine uptake; format: functional, organism-based; conditions: 3D7, 24 h
[2] = tested on: Plasmodium falciparum; test: Antimalarial activity against chloroquine-resistant Plasmodium falciparum K1 infected type A+ human erythrocytes after 24 hrs by [G-3H]hypoxanthine uptake; format: functional, organism-based; conditions: K1, 24 h

Structure (SMILES) | IC50 [1] [nM] | IC50 [2] [nM]
C[C@H]1[C@@H](CCNCCCCNc2ccnc3cc(Cl)ccc23)O[C@@H]2O[C@@]3(C)CC[C@H]4[C@H](C)CC[C@@H]1[C@@]24OO3 | 12.6 | 13.2
C[C@H]1[C@@H](CCNCCNc2ccnc3cc(Cl)ccc23)O[C@@H]2O[C@@]3(C)CC[C@H]4[C@H](C)CC[C@@H]1[C@@]24OO3 | 5.4 | 8.7
C[C@H]1[C@@H](CCNCCCNc2ccnc3cc(Cl)ccc23)O[C@@H]2O[C@@]3(C)CC[C@H]4[C@H](C)CC[C@@H]1[C@@]24OO3 | 11.5 | 12.6
C[C@H]1[C@@H](CC(=O)NCCCNc2ccnc3cc(Cl)ccc23)O[C@@H]2O[C@@]3(C)CC[C@H]4[C@H](C)CC[C@@H]1[C@@]24OO3 | 9.34 | 8.22
COc1ccc2nc3cc(Cl)ccc3c(NCCNC3CCC4(CC3)OOC3(O4)C4CC5CC(C4)CC3C5)c2c1 (stereo not given) | 9.67 | 7.2
C[C@H]1[C@@H](CCNCCCCCNc2ccnc3cc(Cl)ccc23)O[C@@H]2O[C@@]3(C)CC[C@H]4[C@H](C)CC[C@@H]1[C@@]24OO3 | 24.2 | 16.2
Clc1ccc2c(NCCCNC3CCC4(CC3)OOC3(O4)C4CC5CC(C4)CC3C5)ccnc2c1 (stereo not given) | 12.3 | 8.32
Clc1ccc2c(NCCNC3CCC4(CC3)OOC3(O4)C4CC5CC(C4)CC3C5)ccnc2c1 (stereo not given) | 6.56 | 3.6
COc1ccc2nc3cc(Cl)ccc3c(NCCNCc3ccc(CO[C@H]4O[C@@H]5O[C@@]6(C)CC[C@H]7[C@H](C)CC[C@@H]([C@H]4C)[C@@]57OO6)cc3)c2c1 | 12.3 | 19.3
COc1ccc2nc3cc(Cl)ccc3c(NCCNCC[C@H]3O[C@@H]4O[C@@]5(C)CC[C@H]6[C@H](C)CC[C@@H]([C@H]3C)[C@@]46OO5)c2c1 | 12.5 | 14.3
COc1ccc2nc3cc(Cl)ccc3c(NCCCNCc3ccc(CO[C@H]4O[C@@H]5O[C@@]6(C)CC[C@H]7[C@H](C)CC[C@@H]([C@H]4C)[C@@]57OO6)cc3)c2c1 | 16.3 | 20.2
COc1ccc2nc3cc(Cl)ccc3c(NCCCNC3CCC4(CC3)OOC3(O4)C4CC5CC(C4)CC3C5)c2c1 (stereo not given) | 12.5 | 11.1
O=C1CCC2(CC1)OOC1(O2)C2CC3CC(C2)CC1C3 (stereo not given) | 3.1 | 3.02
COc1ccc2nc3cc(Cl)ccc3c(N3CCN(C4CCC5(CC4)OOC4(O5)C5CC6CC(C5)CC4C6)CC3)c2c1 (stereo not given) | 12.3 | 6.76
Clc1ccc2c(N3CCN(C4CCC5(CC4)OOC4(O5)C5CC6CC(C5)CC4C6)CC3)ccnc2c1 (stereo not given) | 12.6 | 26.2

Reference: ChEMBL document CHEMBL1153338, “Semi-synthetic and synthetic 1,2,4-trioxaquines and 1,2,4-trioxolaquines: synthesis, preliminary SAR and comparison with acridine endoperoxide conjugates” (Bioorg Med Chem Lett, 2009)
